According to patent publication EP1724268A1, “COMPOUND HAVING TGF-BETA INHIBITORY ACTIVITY AND PHARMACEUTICAL COMPOSITION CONTAINING SAME” (KIRIN BEER KABUSHIKI KAISHA, priority 2004, dated 2005):
Where two headings read alike, the source gives them in different places.

Tested on: TGFβ signal
Experiment: TGFβ signal inhibitory activity, (SBE)4-Luc reporter in A549 cells (Test Examples 1A and 1B)
Format: cell-based, human
Details: Homo sapiens, A549, read-out: TGFβ inhibition rate, %
Outline: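 Compounds at 3 µM and 10 µM (some 1 µM) were added with 2 ng/ml TGFβ-1 to A549 cells stably expressing an SBE-driven luciferase, then cultured 4 hr. Chemiluminescent luciferase signal gave % inhibition versus TGFβ-alone and no-TGFβ controls.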

[1] = test compound 3 µM, Reference Examples, Table 1B
[2] = test compound 10 µM, Reference Examples, Table 1B
[3] = 3 µM, compounds of Reference Examples (Test Example 1B)
[4] = 10 µM, compounds of Reference Examples (Test Example 1B)
[5] = test compound 3 µM, TGFβ-1 2 ng/ml, 4 hr, Table 1A
[6] = test compound 10 µM, TGFβ-1 2 ng/ml, 4 hr, Table 1A

COc1ccc(Oc2ccnc3cc(OCCCN4CCOCC4)c(OC)cc23)c(C(C)=O)c1 [r122]
inhibition at 3 µM [1]: 100% | inhibition at 10 µM [2]: 100%

COc1cc2c(Oc3cc(C)c(C)nc3-c3ccc(C)cn3)ccnc2cc1OCC(O)CO (stereo not shown) [Compound r463]
inhibition at 3 µM [3]: 77% | inhibition at 10 µM [4]: 99%

COc1cc2nccc(Oc3ccc(C)nc3)c2cc1OC [Compound r115, 4-[(6-Methyl-3-pyridyl)oxy]-6,7-dimethoxyquinoline]
inhibition at 3 µM [1]: 74% | inhibition at 10 µM [2]: 97%

COc1cc2c(Oc3cc4ccccc4nc3C)ccnc2cc1OCC(CO)(CO)CO [Compound r388]
inhibition at 3 µM [3]: 88% | inhibition at 10 µM [4]: 100%

COc1cc2nccc(Oc3ccc4c(ccn4C(C)=O)c3)c2cc1OC [Compound r21]
inhibition at 3 µM [1]: 16% | inhibition at 10 µM [2]: 71%

COc1cccc(-c2nc(C)ccc2Oc2ccnc3cc(OC)c(OC)cc23)c1 [Compound r238]
inhibition at 3 µM [3]: 92% | inhibition at 10 µM [4]: 100%

COc1cc2c(Oc3cc(C)c(C)nc3-c3cccc(C)n3)ccnc2cc1OCCO [Compound r450]
inhibition at 3 µM [3]: 94% | inhibition at 10 µM [4]: 100%

COc1cc2c(Oc3cc(C)c(C)nc3-c3cccc(C)n3)ccnc2cc1OCCNCCO [Compound r468]
inhibition at 3 µM [3]: 99%

Cc1cc(Oc2ccnc3cc(-c4cccnc4)ccc23)c(-c2ccccn2)nc1C [Compound 18, 5,6-Dimethyl-3-(7-pyridin-3-yl-quinolin-4-yloxy)-[2,2']bipyridine]
inhibition at 3 µM [5]: 95% | inhibition at 10 µM [6]: 100%

Cc1ccc(Oc2ccnc3ccc(OCCCN(CCO)c4ccccc4)cc23)c(-c2ncccn2)n1 [Compound 219, 2-({3-[4-(6-Methyl-2-pyrimidin-2-yl-pyridin-3-yloxy)-quinolin-6-yloxy]-propyl}-phenylamino)-ethanol]
inhibition at 3 µM [5]: 96% | inhibition at 10 µM [6]: 100%

COc1cc2nccc(Oc3ccc(C)cc3C(=O)C3CCCCC3)c2cc1OC [Compound r59]
inhibition at 3 µM [1]: 65% | inhibition at 10 µM [2]: 99%

COc1cc2c(Oc3cc(C)c(C)nc3-c3cccnc3)ccnc2cc1OCc1ccccc1 [Compound r344]
inhibition at 3 µM [3]: 92%

COc1cc2c(Oc3ccc(C)cc3C(=O)c3ccccc3)ccnc2cc1OCCCN1CCNCC1 [r137]
inhibition at 3 µM [1]: 100% | inhibition at 10 µM [2]: 100%

c1ccc(-c2nc3ncccc3cc2Oc2ncnc3ccsc23)cc1 [Compound 75, 2-Phenyl-3-(thieno[3,2-d]pyrimidin-4-yloxy)-[1,8]naphthyridine]
inhibition at 3 µM [5]: 84% | inhibition at 10 µM [6]: 98%

Cc1cc(Oc2ccnc3ccccc23)c(-c2ncccn2)nc1C [Compound 49, 4-(5,6-Dimethyl-2-pyrimidin-2-yl-pyridin-3-yloxy)-quinoline]
inhibition at 3 µM [5]: 97% | inhibition at 10 µM [6]: 100%

COc1cc2nccc(Oc3cc4ccncc4cc3-c3cccnc3)c2cc1OC [r304]
inhibition at 3 µM [3]: 26% | inhibition at 10 µM [4]: 64%

COc1cc2nccc(Oc3cc4cccnc4nc3-c3ccc(Cl)cc3)c2cc1OC [Compound 84, 2-(4-Chloro-phenyl)-3-(6,7-dimethoxy-quinolin-4-yloxy)-[1,8]naphthyridine]
inhibition at 3 µM [5]: 69% | inhibition at 10 µM [6]: 100%

Cc1cc(Oc2ccnc3ccc(OCc4ccccc4)cc23)c(-c2ccccn2)nc1C [Compound 136, 3-(6-Benzyloxy-quinolin-4-yloxy)-5,6-dimethyl-[2,2']bipyridine]
inhibition at 3 µM [5]: 93% | inhibition at 10 µM [6]: 100%

COc1cc2c(Oc3cc(C)c(C)nc3-c3cccc(C)n3)ccnc2cc1OCC(O)CO (stereo not shown) [Compound r449]
inhibition at 3 µM [3]: 74% | inhibition at 10 µM [4]: 98%

CCCOC(=O)c1cc2ccccc2cc1Oc1ccnc2cc(OCCn3ccnc3)c(OC)cc12 [Compound r324]
inhibition at 3 µM [3]: 86% | inhibition at 10 µM [4]: 100%

COc1cc2c(Oc3cc4cccnc4nc3-c3ccccc3)ccnc2cc1C(N)=O [Compound 147, 6-Methoxy-4-(2-phenyl-[1,8]naphthyridin-3-yloxy)-quinoline-7-carboxylic acid amide]
inhibition at 3 µM [5]: 34% | inhibition at 10 µM [6]: 77%

COc1cc2c(Oc3cc4cccnc4nc3C)ccnc2cc1OCCCCO [Compound r405]
inhibition at 3 µM [3]: 92% | inhibition at 10 µM [4]: 100%

COc1cc2nccc(Oc3ccc(C)nc3C(=O)c3ccccc3)c2cc1OC [Compound r220]
inhibition at 3 µM [3]: 99% | inhibition at 10 µM [4]: 100%

COc1cc2nccc(Oc3cc(Cl)c(C)cc3C(C)=O)c2cc1OC [Compound r184]
inhibition at 3 µM [3]: 100% | inhibition at 10 µM [4]: 100%

COc1cc2nccc(Oc3ccc(C)cc3C(=O)CC(C)(C)C)c2cc1OC [Compound r55]
inhibition at 3 µM [1]: 53% | inhibition at 10 µM [2]: 98%

COc1cc2c(Oc3ccc(C)cc3C(=O)c3ccccc3)ccnc2cc1OCCN1CCC(CO)CC1 [Compound r126]
inhibition at 3 µM [1]: 100% | inhibition at 10 µM [2]: 100%

Cc1cc(Oc2ccnc3ccc(Cl)c(Cl)c23)c(-c2ccccn2)nc1C [Compound 130, 3-(5,6-Dichloro-quinolin-4-yloxy)-5,6-dimethyl-[2,2']bipyridine]
inhibition at 3 µM [5]: 100% | inhibition at 10 µM [6]: 100%

COc1cc2c(Oc3cc4ccccc4nc3C)ccnc2cc1OCCN [Compound r354]
inhibition at 3 µM [3]: 100% | inhibition at 10 µM [4]: 100%

Cc1ccc(-c2nc(C)c(C)cc2Oc2ncnc3ccccc23)nc1 [Compound 38, 4-(5,6,5'-Trimethyl-[2,2']bipyridin-3-yloxy)-quinazoline]
inhibition at 3 µM [5]: 45% | inhibition at 10 µM [6]: 89%

COc1cc2nccc(Oc3cc(C)c(C)cc3/C(C)=N/Oc3ccccc3)c2cc1OC [r199]
inhibition at 3 µM [3]: 14% | inhibition at 10 µM [4]: 59%

COc1cc2c(Oc3cc(C)c(C)cc3C(C)=O)ccnc2cc1OCCCl [Compound r315]
inhibition at 3 µM [3]: 98% | inhibition at 10 µM [4]: 100%

COc1cc2c(Oc3ccc(C)cc3C(=O)c3ccccc3)ccnc2cc1OCCn1ccnc1 [Compound r131]
inhibition at 3 µM [1]: 96% | inhibition at 10 µM [2]: 100%

COc1cc2c(Oc3ccc(C)cc3C(=O)c3ccccc3)ccnc2cc1OCC(O)CN1CCC(CO)CC1 (stereo not shown) [r154]
inhibition at 3 µM [1]: 99% | inhibition at 10 µM [2]: 100%

COc1cc2nccc(Oc3cc4ccncc4nc3C)c2cc1OC [Compound 97, 3-(6,7-Dimethoxy-quinolin-4-yloxy)-2-methyl-[1,7]naphthyridine]
inhibition at 3 µM [5]: 52% | inhibition at 10 µM [6]: 88%

COc1cc2c(Oc3cc(C)c(C)nc3-c3ccccn3)ccnc2cc1C(N)=O [Compound 145, 4-(5,6-Dimethyl-[2,2']bipyridinyl-3-yloxy)-6-methgxy-quinoline-7-carboxylic acid amide]
inhibition at 3 µM [5]: 78% | inhibition at 10 µM [6]: 100%

CCOc1ccc(Oc2ccnc3cc(OC)c(OC)cc23)c(C(C)=O)c1 [Compound r178, 1-[2-(6,7-Dimethoxy-quinolin-4-yloxy)-5-ethoxy-phenyl]-ethanone]
inhibition at 3 µM [3]: 66% | inhibition at 10 µM [4]: 97%

COc1cc2nccc(Oc3ccc(C)nc3-c3c(Cl)cccc3Cl)c2cc1OC [Compound r253]
inhibition at 3 µM [3]: 68% | inhibition at 10 µM [4]: 97%

COc1cc2c(Oc3ccc(C)cc3C(=O)c3ccccc3)ccnc2cc1OCCCNCCO [Compound r133]
inhibition at 3 µM [1]: 100% | inhibition at 10 µM [2]: 100%

CCOC(=O)c1ccccc1Oc1ccnc2cc(OC)c(OC)cc12 [Compound r80]
inhibition at 3 µM [1]: 62% | inhibition at 10 µM [2]: 95%
